Among the data in patent publication US8592428B2 (MSD K. K., priority 2008, dated 2013) are solubility, Emax and EC50 values, retold here.

A short description of data set [1]: Solubility in water by solution precipitation method (HPLC). It counts as physicochemical. The note with it: water (2% DMSO), kinetic from dmso stock, from 10 mM DMSO solution, 60 minutes stirring at room temperature, compounds of the present invention. Here is the method: For solubility in water, the solubility of a compound in water was determined by a solution precipitation method.
For an HPLC system, Agilent HPLC 1100 system was used. […] For a shaker, Microincubator M-36 (Taitec) was used. For a plate, a 96-deep well plate (Nunc. 260252) was used. For a well cap, Pre-Slit Well Cap for 96 Well PP (NALGENE. 276011) was used. For a filtration plate, MultiScreen Solubility (Millipore; MSSLBPC10) was used. For dispensation, an 8-channel electronic multipipette, Biohit Proline (Biohit), and a 96-well automatic pipetting device, Biomeck 2000 (Biomeck) were used. For a reagent used, a pure solvent for DMSO ultraviolet absorption spectrum (Dojindo 349-01025) and water (MiliQ water, manufactured by Millipore).
For a DMSO solution, a sample was prepared with DMSO to be precisely 10 mM.
Precise dispensation of 10 μL of a DMSO solution into each well of a 96-well plate was performed. Following addition of 490 μL of water to each of the wells and plate-sealing with 96-well Cap (Agilent No. 5042-1389), intense stirring processing of the plate was performed for 60 minutes at room temperature on a shaker. Subsequently, 200 μL of a treatment sample was added to a plate for centrifugal filtration, and centrifugal filtration of the sample was performed to obtain a filtrate. A sample solution was made by adding 200 μl, of a 50% aqueous acetonitrile solution to the provided filtrate.
Precise dispensation of 10 μL of a DMSO solution into each well of a 96-well plate was performed.
Detection was performed using a multi-wavelength detector (190-370 nm). For a column, the above-mentioned column was used at 40° C. A flow rate was set at 1.2 ml/min, and an amount of an injected sample at 20 μL. For a moving phase, a 0.1% aqueous phosphoric acid solution as a liquid A and acetonitrile as a liquid B were used to carry out analyses in accordance with a time schedule described below.
For the analyses, the data of UV 275 nm were adopted. […] Using the calibration curve, regression calculation of concentrations in water was carried out from Area of sample solutions (water).

Data set [2] addresses T1, recombinant human liver GK (Homo sapiens, UniProt P35557).
T1 construct: made in house; host or cells: E. coli
T1 sequence (P35557 1-466 isoform P35557-2): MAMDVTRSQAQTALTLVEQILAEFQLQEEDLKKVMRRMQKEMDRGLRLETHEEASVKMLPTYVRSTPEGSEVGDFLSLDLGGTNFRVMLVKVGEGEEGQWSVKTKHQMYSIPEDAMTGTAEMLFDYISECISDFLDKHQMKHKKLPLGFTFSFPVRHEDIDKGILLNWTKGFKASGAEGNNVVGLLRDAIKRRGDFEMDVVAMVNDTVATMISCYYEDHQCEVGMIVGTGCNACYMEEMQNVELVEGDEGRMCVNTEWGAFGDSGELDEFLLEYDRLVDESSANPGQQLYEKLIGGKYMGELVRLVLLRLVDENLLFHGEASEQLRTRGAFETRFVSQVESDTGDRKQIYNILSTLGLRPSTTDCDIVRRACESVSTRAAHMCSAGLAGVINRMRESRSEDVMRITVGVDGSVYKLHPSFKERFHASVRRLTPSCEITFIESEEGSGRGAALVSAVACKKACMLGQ
In words: Glucokinase-activating effect (Thio-NADH coupled G6PDH assay). In kind it is biochemical. Particulars: final glucose concentration 2.5 mM, 30° C.; for Emax: OD level of DMSO control = 100%. The text has this: The excellent glucokinase-activating effect of the compounds of formula (I) may be determined by a method described in literature (for example, Diabetes, Vol. 45, pp. 1671-1677, 1996), or in accordance with it.
The glucokinase activity may be determined not by directly measuring glucose-6-phosphate but by measuring the level of Thio-NADH, which is produced when a reporter enzyme, glucose-6-phosphate dehydrogenase produces phosphogluconolactone from glucose-6-phosphate, and based on the level, the degree of glucokinase activation by the compound tested may be determined.
In this assay, used was a recombinant human liver GK, which was expressed by E. coli as a FLAG fusion protein therein and was purified by […] M2 AFFINITY GEL (Sigma).
Using a flat-bottomed 96-well plate, the assay was carried out at 30° C. 69 μl of an assay buffer (25 mM Hepes Buffer/pH=7.2, 2 mM MgCl2, 1 mM ATP, 0.5 mM TNAD, 1 mM dithiothreitol) was put into the plate, and 1 μl of a DMSO solution of the compound or DMSO alone as a control was added thereto. Next, 20 μl of an enzyme mixture (FLAG-GK, 20 U/ml G6PDH) cooled in ice was added to it, and 10 μl of a substrate, 25 mM glucose was added to it, and the reaction was initiated (final glucose concentration=2.5 mM).
After the start of the reaction, the increase in the absorbance at 405 nm was measured for 12 minutes at intervals of 30 seconds, and the increase for the first 5 minutes was used for assessing the compound tested. FLAG-GK was added so that the absorbance increase after 5 minutes in the presence of 1% DMSO could be from 0.04 to 0.06.
The OD level of the DMSO control was set as 100%; and the OD level of the test compound at different concentrations was determined. From the OD level at each concentration, Emax (%) and EC50 (μM) were computed and used as the index of the GK-activating potency of the compound.

Values after ≈ are worked out from the molar mass of the structure shown. Where only a bound is given, the exact number is not on record here.

The compound `CC(=O)N1CCC[C@@H]1c1cc2[nH]c(-c3cnc(C(C)(C)O)cn3)cc2cc1Oc1ccc(S(C)(=O)=O)nc1` [Example 22, 6-[(R)-1-acetylpyrrolidin-2-yl]-2-[5-(1,1-dimethylhydroxymethyl)pyrazin-2-yl]-5-(6-methylsulfonylpyridin-3-yloxy)-1H-indole] displayed a solubility at 60 min in data set [1] of over 170 µM.
As to `COCc1ccc(Oc2cc3cc(-c4cnccn4)[nH]c3cc2[C@H]2CCCN2C(C)=O)cn1` [Example 17, 6-[(R)-1-acetylpyrrolidin-2-yl]-5-(6-methoxymethylpyridin-3-yloxy)-2-(pyrazin-2-yl)-1H-indole], in data set [2], the Emax was determined as 988% and the EC50 stood at 80 nM. This compound yielded a solubility at 60 min in data set [1] of over 170 µM.
Regarding `CC(=O)N1CCC[C@@H]1c1cc2[nH]c(-c3cnc(CO)cn3)cc2cc1Oc1ccc(OCCO)nc1` [Example 14, 6-[(R)-1-acetylpyrrolidin-2-yl]-5-[6-(2-hydroxyethoxy)pyridin-3-yloxy]-2-(5-hydroxymethylpyrazin-2-yl)-1H-indole], in data set [1], the solubility at 60 min is over 170 µM.
As to `CC(=O)N1CCC[C@@H]1c1cc2[nH]c(-c3ccc(C(C)(C)O)cn3)cc2cc1Oc1ccc(S(C)(=O)=O)nc1` [Example 9, 6-[(R)-1-acetylpyrrolidin-2-yl]-2-[5-(1,1-dimethylhydroxymethyl)pyridin-2-yl]-5-(6-methylsulfonylpyridin-3-yloxy)-1H-indole], the EC50 in data set [2] turned out to be 130 nM. Further, in data set [1], the concentration in solution (solubility at 60 min) was 152 µM (≈ 81.2 µg/mL).
Consider `CNC(=O)c1ccc(-c2cc3cc(Oc4ccc(S(C)(=O)=O)nc4)c([C@H]4CCCN4C(C)=O)cc3[nH]2)nc1` [Example 5, 6-[(R)-1-acetylpyrrolidin-2-yl]-2-[5-(N-methylcarbamoyl)pyridin-2-yl]-5-(6-methylsulfonylpyridin-3-yloxy)-1H-indole], for which, in data set [1], the solubility at 60 min was 112 µM (≈ 59.5 µg/mL).
On the same count and under the same terms, for `CC(=O)N1CCC[C@@H]1c1cc2[nH]c(-c3ccccn3)cc2cc1Oc1ccc(OCCO)nc1` [Example 11, 6-[(R)-1-acetylpyrrolidin-2-yl]-5-[6-(2-hydroxyethoxy)pyridin-3-yloxy]-2-(pyridin-2-yl)-1H-indole] the value was 48.6 µM (≈ 22.3 µg/mL).
For the compound `CCN(CC)C(=O)c1ccc(Oc2cc3cc(-c4cnccn4)[nH]c3cc2[C@H]2CCCN2C(C)=O)cn1` [Example 27], in data set [2], the maximal response (Emax) came out at 957% and the EC50 is 120 nM. In data set [1], this compound gave a solubility at 60 min of over 170 µM.
In turn, `CC(=O)N1CCC[C@@H]1c1cc2[nH]c(-c3ccc(CO)cn3)cc2cc1Oc1ccc(C(=O)N2CCC2)nc1` [Example 23, 6-[(R)-1-acetylpyrrolidin-2-yl]-5-[6-(azetidin-1-ylcarbonyl)pyridin-3-yloxy]-2-(5-hydroxymethylpyridin-2-yl)-1H-indole] came in with a solubility at 60 min in data set [1] of 77.6 µM (≈ 39.7 µg/mL).
On to `CC(=O)N1CCC[C@@H]1c1cc2[nH]c(-c3cnc(C)cn3)cc2cc1Oc1ccc(S(C)(=O)=O)nc1` [Example 3, 6-[(R)-1-acetylpyrrolidin-2-yl]-5-(6-methylsulfonylpyridin-3-yloxy)-2-(5-methylpyrazin-2-yl)-1H-indole], for which the EC50 in data set [2] is 120 nM. The same compound displayed a solubility at 60 min in data set [1] of over 170 µM.
Turning to `COCc1ccc(Oc2cc3cc(-c4ccc(CO)cn4)[nH]c3cc2[C@H]2CCCN2C(C)=O)cn1` [Example 15, 6-[(R)-1-acetylpyrrolidin-2-yl]-2-(5-hydroxymethylpyridin-2-yl)-5-(6-methoxymethylpyridin-3-yloxy)-1H-indole], in data set [2], the Emax stood at 849% and the EC50 worked out at 130 nM. In data set [1], this compound came in with a solubility at 60 min of 168 µM (≈ 79.4 µg/mL).
`CC(=O)N1CCC[C@@H]1c1cc2[nH]c(-c3cnccn3)cc2cc1Oc1ccc(CO)nc1` [Example 6, 6-[(R)-1-acetylpyrrolidin-2-yl]-5-(6-hydroxymethylpyridin-3-yloxy)-2-(pyrazin-2-yl)-1H-indole] gave a solubility at 60 min in data set [1] of over 170 µM.
Same read-out and setting: next, `CC(=O)N1CCC[C@@H]1c1cc2[nH]c(-c3cnccn3)cc2cc1Oc1ccc(C(=O)N(C)C)nc1` [Example 25, 6-[(R)-1-acetylpyrrolidin-2-yl]-5-[6-(N,N-dimethylcarbamoyl)pyridin-3-yloxy]-2-(pyrazin-2-yl)-1H-indole]: over 170 µM.
The same measure, in the same setting: for `CC(=O)N1CCC[C@@H]1c1cc2[nH]c(-c3cnccn3)cc2cc1Oc1ccc(OCCO)nc1` [Example 12, 6-[(R)-1-acetylpyrrolidin-2-yl]-5-[6-(2-hydroxyethoxy)pyridin-3-yloxy]-2-(pyrazin-2-yl)-1H-indole] the value was 128 µM (≈ 58.8 µg/mL); for `CC(=O)N1CCC[C@@H]1c1cc2[nH]c(-c3cnccn3)cc2cc1Oc1ccc(C(=O)N2CCC2)nc1` [Example 20, 6-[(R)-1-acetylpyrrolidin-2-yl]-5-[6-(azetidin-1-ylcarbonyl)pyridin-3-yloxy]-2-(pyrazin-2-yl)-1H-indole], 122 µM (≈ 59.1 µg/mL); for `CC(=O)N1CCC[C@@H]1c1cc2[nH]c(-c3cnccn3)cc2cc1Oc1ccc(CCO)nc1` [Example 19, 6-[(R)-1-acetylpyrrolidin-2-yl]-5-[6-(2-hydroxyethyl)pyridin-3-yloxy]-2-(pyrazin-2-yl)-1H-indole], over 170 µM.
On the same count and under the same terms, for `CC(=O)N1CCC[C@@H]1c1cc2[nH]c(-c3cnc(C(C)(C)O)cn3)cc2cc1Oc1ccc(C(=O)N2CCC2)nc1` [Example 21, 6-[(R)-1-acetylpyrrolidin-2-yl]-5-[6-(azetidin-1-ylcarbonyl)pyridin-3-yloxy]-2-[5-(1,1-dimethylhydroxymethyl)pyrazin-2-yl]-1H-indole] the value was over 170 µM; for `CC(=O)N1CCC[C@@H]1c1cc2[nH]c(-c3ccc(C(C)(C)O)cn3)cc2cc1Oc1ccc(C(=O)N2CCC2)nc1` [Example 24, 6-[(R)-1-acetylpyrrolidin-2-yl]-5-[6-(azetidin-1-ylcarbonyl)pyridin-3-yloxy]-2-[5-(1,1-dimethylhydroxymethyl)pyridin-2-yl]-1H-indole], 142 µM (≈ 76.6 µg/mL).
Regarding `CC(=O)N1CCC[C@@H]1c1cc2[nH]c(-c3ccc(C(C)(C)O)cn3)cc2cc1Oc1ccc(CO)nc1` [Example 8, 6-[(R)-1-acetylpyrrolidin-2-yl]-2-[5-(1,1-dimethylhydroxymethyl)pyridin-2-yl]-5-(6-hydroxymethylpyridin-3-yloxy)-1H-indole], the solubility at 60 min in data set [1] is over 170 µM.
Turning to `COCc1ccc(Oc2cc3cc(-c4ccccn4)[nH]c3cc2[C@H]2CCCN2C(C)=O)cn1` [Example 18, 6-[(R)-1-acetylpyrrolidin-2-yl]-5-(6-methoxymethylpyridin-3-yloxy)-2-(pyridin-2-yl)-1H-indole], the solubility at 60 min in data set [1] was 133 µM (≈ 58.8 µg/mL).

A word on the solubility: it is the concentration that dissolves in the medium under given conditions. Usually Emax stands for the maximal effect, on the per cent scale that the assay sets. Usually EC50 stands for the concentration that produces a half-maximal response.
